Assay results published in patent publication US10421718B2, “EBNA1 inhibitors and their method of use” (priority 2013, dated 2019).

What follows are compounds tested against T1, His-EBNA1 (DNA binding domain of EBNA1, amino acids 459-607) (Epstein-Barr virus, UniProt P03211) (assay: Inhibition of 5′-biotin-oPL4624 binding to His-EBNA1 using Alpha Screen technology). Conditions: Alpha Screen Activity (IC50, inhibition of 5′-biotin-oPL4624 binding to His-EBNA1), 15 nM His-EBNA1, 0.2 nM bt-oPL4624, 2 hr room temperature.
T1 construct: made in house; host or cells: E. coli
T1 sequence (P03211 459-607): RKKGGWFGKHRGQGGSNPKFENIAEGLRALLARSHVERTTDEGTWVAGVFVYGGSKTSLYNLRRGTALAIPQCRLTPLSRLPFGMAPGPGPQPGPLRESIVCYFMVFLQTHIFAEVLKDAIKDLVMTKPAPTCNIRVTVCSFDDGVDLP
In short: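 AlphaScreen signal (680 nm ex, 570 nm em) after a 2-h room-temperature incubation, normalized to no-EBNA1 (100% inhibition) and EBNA1 (0%) values and fit to a one-site curve. Final conditions: 15 nM His-EBNA1 (aa 459-607), 0.2 nM bt-oPL4624, Tris pH 7.2 buffer with 160 mM NaCl, compound 3.2 nM to 100 μM.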
With `CNS(=O)(=O)c1cccc(C#Cc2cccc(C(=O)O)c2-n2cccc2)c1` [Entry 1, 3-(3-methylsulfamoyl-phenylethynyl)-2-pyrrol-1-yl-benzoic acid] the IC50 was 1 to 10 µM.
In the case of `COc1cccc(-c2c(C#Cc3c[nH]c4ncccc34)cccc2C(=O)O)c1` [Entry 166, 2-(3-methoxyphenyl)-3-(2-{1H-pyrrolo[2,3-b]pyridin-3-yl}ethynyl)benzoic acid], the IC50 is reported as 10 to 100 µM.
`O=C(O)c1cccc(C#Cc2ccc(OC3CCOCC3)cc2)c1-c1ccc2cc[nH]c2c1` [Entry 225, 2-(1H-indol-6-yl)-3-((4-(tetrahydro-2H-pyran-4-yloxy)phenyl)ethynyl)benzoic acid] gave an IC50 of under 1 µM.
`O=C(O)c1cccc(C#Cc2cccc(CO)c2)c1-c1ccc2cc[nH]c2c1` [Entry 249, 3-((3-(hydroxymethyl)phenyl)ethynyl)-2-(1H-indol-6-yl)benzoic acid] showed an IC50 of 1 to 10 µM.
With `O=C(O)c1cccc(C#Cc2ccccc2)c1-n1cnc2ccccc21` [Entry 297, 2-benzoimidazol-1-yl-3-phenylethynyl-benzoic acid] the IC50 was 10 to 100 µM.
`NC(=O)c1cccc(C#Cc2cccc(C(=O)O)c2-n2cccc2)c1` [Entry 5, 3-[2-(3-carbamoylphenyl)ethynyl]-2-(1H-pyrrol-1-yl)benzoic acid] gave an IC50 of under 1 µM.
Work on `O=C(O)c1cccc(C#Cc2ccccc2)c1-c1cn[nH]c1` [Entry 99, 3-(2-phenylethynyl)-2-(1H-pyrazol-4-yl)benzoic acid] yielded an IC50 of 1 to 10 µM.
Compound `NC(=O)c1cccc(C#Cc2cccc(C(=O)O)c2-c2ccc3cc[nH]c3c2)c1` [Entry 227, 3-((3-carbamoylphenyl)ethynyl)-2-(1H-indol-6-yl)benzoic acid] has an IC50 of 10 to 100 µM.
In the case of `O=C(O)c1ccc(C#Cc2cccc(C(=O)O)c2-c2ccc3cc[nH]c3c2)cc1` [Entry 209, 3-(4-carboxy-phenylethynyl)-2-(1H-indol-6-yl)-benzoic acid], the IC50 is reported as under 1 µM.
For `O=C(O)c1cccc(C#Cc2ccccc2)c1-n1ccnc1` [Entry 294, 2-imidazol-1-yl-3-phenylethynyl-benzoic acid], the IC50 was 10 to 100 µM.
Compound `O=C(O)c1cccc(C#Cc2ccnc(O)c2)c1-n1cccc1` [Entry 7, 3-[2-(2-hydroxypyridin-4-yl)ethynyl]-2-(1H-pyrrol-1-yl)benzoic acid] has an IC50 of 10 to 100 µM.
